Where two headings read alike, the source gives them in different places.
Molecular target: proteinase K (Parengyodontium album, UniProt P06873)
Details: relative to 0 min control buffer without chaotropic agent (0.5 U/ml = 100%); for Activity of proteinase K at t = 0 min: 0 min value; for Activity of proteinase K at t = 15 min: 15 min value
Description: 10 μl of a 20 mg/ml stock solution of proteinase K (Roche Diagnostics GmbH, Mannheimm, catalogue no. 745723; 90 mg dissolved in 4.5 ml water) was mixed with a chaotropic buffer containing 50 mM Tris-HCl pH 6.0, 1% DTT, 20% TRITON X-100 and x M Guanidinum thiocyanate; x=0, 1, 2, 3, 4, 5, 6). Directly after mixing the proteinase K activity was measured in a first aliquot (10 μl) of the mixture using the assay described below (0 min activity value). 15 min after mixing the proteinase K activity was measured in a second aliquot (10 μl) of the mixture using the assay described below (15 min activity value).
10 μl of the proteinase K in chaotropic buffer (see above, (A)) were mixed with assay buffer, that is to say 980 μl 0.2 M Triethanolamin, 0.05% (weight by volume) PEG 6000, 0.1 M Calcium chloride, and 10 μl of a 200 mM substate solution. The substrate was Suc-Ala-Ala-Ala-p-Nitroanilid. The assay buffer was provided in a cuvette. Immediately after mixing the cuvette was placed in a Photometer. Measurements (absorption) were taken over 15 min at 25° C. The activity of proteinase K in the assay buffer was calculated from the kinetics as indicated by a change in absorption at 405 nm.
Table 1 lists the 0 min values of the activity of proteinase K in the presence of guanidinium thiocyanate at the different concentrations given in (A). Table 2 lists the 15 min values of the activity of proteinase K in the presence of guanidinium thiocyanate at the different concentrations given in (A) as well as the control value (no chaotropic agent present). The values are expressed in relation to the 0 min activity value of proteinase K in the control buffer without chaotropic agent (see (A)), corresponding to 0.5 U/ml; this value was set as 100%. The data of Table 1 and Table 2 are graphically represented in FIG. 1 and FIG. 2.

Chain of proteinase K (P06873 106-384): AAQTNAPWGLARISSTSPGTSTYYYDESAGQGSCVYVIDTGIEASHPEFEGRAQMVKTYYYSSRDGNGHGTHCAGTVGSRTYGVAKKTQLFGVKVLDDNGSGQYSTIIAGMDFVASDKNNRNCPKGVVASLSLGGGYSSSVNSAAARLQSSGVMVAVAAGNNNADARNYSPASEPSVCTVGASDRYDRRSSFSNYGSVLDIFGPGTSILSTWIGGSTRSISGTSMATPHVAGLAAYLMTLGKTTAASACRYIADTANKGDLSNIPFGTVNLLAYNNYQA

## N#CS.N=C(N)N [guanidinium thiocyanate]
1 M guanidinium thiocyanate
  Activity of proteinase K at t = 0 min: 94%
  Activity of proteinase K at t = 15 min: 95%
2 M guanidinium thiocyanate
  Activity of proteinase K at t = 0 min: 100%
  Activity of proteinase K at t = 15 min: 95%
3 M guanidinium thiocyanate
  Activity of proteinase K at t = 0 min: 66%
  Activity of proteinase K at t = 15 min: 1%
4 M guanidinium thiocyanate
  Activity of proteinase K at t = 0 min: 1%
  Activity of proteinase K at t = 15 min: 0%
5 M guanidinium thiocyanate
  Activity of proteinase K at t = 0 min: 0%
  Activity of proteinase K at t = 15 min: 0%
6 M guanidinium thiocyanate
  Activity of proteinase K at t = 0 min: 0%
  Activity of proteinase K at t = 15 min: 0%

Reference: patent US7491495B2, “Adsorption of nucleic acids to a solid phase” (Roche Diagnostics Operations, Inc., priority 2004, dated 2009)
